From patent US20260151391A1, “TREATMENT OF MITOCHONDRIAL DISEASES WITH sGC STIMULATORS” (Tisento Therapeutics Inc., priority 2022, published 2026) come the findings set out here.

Series [1] is described as follows: Non-human primate CSF pharmacokinetics (Study B), cisterna magna versus lumbar sampling. The class given is in vivo, Macaca fascicularis. As to conditions: for Kp uu at 3 h / Kp uu at 24 h: female, Cynomolgus macaque, cynomolgus monkey, read-out: geomean ratio of CSF concentration to unbound concentration in plasma (Kp,uu). From the text:
The objective of this study was to investigate the pharmacokinetics of Compound 1-14 after administration of a single […] bolus or oral gavage dose to cynomolgus monkeys on Day 1 and to evaluate differences in pharmacokinetic values when comparing CSF collected at the cisterna magna (as in Example 10A) versus lumbar locations. [table] • Species: Macaca fascicularis • Strain: Cynomolgus macaque • Number of Females: 4 • Age: Adult • Weight: 2.5-4 kg Single doses of Compound I-14 were administered intravenously as a bolus injection of a solution at 0.15 mg/kg and orally by gavage as a suspension at 0.5 mg/kg to a group of four female cynomolgus monkeys in a crossover design. Plasma samples were collected at 0.25 (15 min), 0.5 (30 min), 1, 2, 3, 6, 8, 12, 24, 32, and 48 h following the IV and PO doses. CSF samples were collected at 3 and 24 h for all animals from the cisterna magna in groups 1 and 2 and the lumbar from groups 3 and 4. Sample extracts were prepared by protein precipitation and Compound I-14 concentrations were measured using LC-MS/MS. Pharmacokinetic parameters were calculated.

Series [2] concerns memory disruption induced by MK-801 in male Long Evans rats. In words: Novel Object Recognition (NOR) test, memory disruption induced by MK-801. The class given is in vivo, rat. To be noted: any dose tested, oral. As for the experimental part: In the present study, a memory saving model was used. MK-801 (Dizocilpine), an uncompetitive antagonist of the NMDA receptor was used to cause deficit of recognition memory. sGC stimulators were evaluated for their efficacy to prevent memory impairment induced by MK-801.
Adult male Long-Evans rats (275-299 gram at arrival from Envigo, Indianapolis, IN) were used in this study. Rats were placed in the experimental rooms and assigned unique identification numbers (tail marks). Rats were housed 2 per cage in polycarbonate cages with filter tops and acclimated for at least 7 days prior to testing. […]
NOR test was conducted in an open-field arena (40×40 cm) placed in a sound-attenuated room under dimmed lighting. […] All training and testing trials were video-taped and scored by an observer blind to treatments.
On Days 1 and 2, rats were allowed to freely explore the arena (no objects inside) for a 5-minute habituation period. […] Each rat was placed in the arena facing the same direction at the same position, and the time spent actively exploring the objects during a 3-minute training period (T1) was recorded. […] Each rat was placed back into the test arena in the presence of one familiar object and one novel object for 5 minutes, and the time spent exploring both objects was recorded. […]

Setting [3] is: CSF (cisterna magna) / unbound plasma, IV bolus 0.15 mg/kg, cisterna magna sampling.
[4] abbreviates: CSF (cisterna magna) / unbound plasma, oral gavage 0.5 mg/kg, cisterna magna sampling.
The mark [5] stands for this setting: CSF (lumbar) / unbound plasma, IV bolus 0.15 mg/kg, lumbar sampling.
Where [6] appears, read: CSF (lumbar) / unbound plasma, oral gavage 0.5 mg/kg, lumbar sampling.

Where two headings read alike, the source gives them in different places.

Turning to `Cc1cc(F)c(Cc2nc(-c3ncc(F)c(O)n3)cn3ccnc23)cc1F` [Compound I-14, 5-fluoro-2-(8-(2,5-difluoro-4-methylbenzyl)imidazo[1,2-a]pyrazin-6-yl)pyrimidin-4-ol], the “presence of compound in CSF” value in series [1] (IV and PO administration, cisterna magna and lumbar sampling) was “observed in the CSF at 3 and 24 hours”. For the same compound, the Kp uu at 3 h in series [1] (setting [3]), in series [1] (setting [4]), in series [1] (setting [5]) and in series [1] (setting [6]) was 2 to 3 throughout. Also, the Kp uu at 24 h in series [1] (setting [3]) lay in the range of 1 to 2; in series [1] (setting [4]) it was 2 to 3; in series [1] (setting [5]) it was 1 to 2; in series [1] (setting [6]) it was 2 to 3. Moreover, the “obvious side effects in NOR study” value in series [2] is given as “None of the rats in this study showed obvious side effects”.
